Data taken from EP4707280A1, “1,4-CINEOLE DERIVATIVE AND INTERMEDIATE THEREOF, HERBICIDE CONTAINING SAID DERIVATIVE AS ACTIVE INGREDIENT, METHOD FOR USING HERBICIDE, AND METHOD FOR PREPARING AGROCHEMICAL COMPOSITION” (HOKKO CHEMICAL INDUSTRY CO., LTD., priority 2023, dated 2024).

Tests used:
Assay type in all cases: in vivo
[1] = test system: Echinochloa crus-galli var. formosensis; experiment: Test Example 1: herbicidal effect test by soil application in paddy rice; conditions: Echinochloa crus-galli, soil, 336 h; 120 g active ingredient per 10 ares; applied immediately after sowing, flooded pots; 14 days after application; read-out: weed inhibition rate
In short: (§1)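 Weeds sown 0–1 cm deep (30 seeds each) into fertilized, puddled paddy soil in Wagner pots. Pots are flooded immediately, water held near 3 cm, and the diluted emulsifiable concentrate is dripped in at once, delivering 120 g active ingredient per 10 ares under glass-greenhouse management.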

Scirpus juncoides [2] = experiment: as above; conditions: Schoenoplectiella juncoides, soil, 336 h; 120 g active ingredient per 10 ares; applied immediately after sowing, flooded pots; 14 days after application; read-out: weed inhibition rate
In short: as §1

[3] = test system: Echinochloa crus-galli var. formosensis; experiment: Test Example 2: herbicidal effect test by application during growth period of paddy rice; conditions: Echinochloa crus-galli; 120 g per 10 ares; applied seven days after sowing, flooded pots; 14 days after application; read-out: weed inhibition rate
In short: (§2)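 Paddy soil in Wagner pots was puddled with N:P:K 16:16:16 fertilizer, sown with 30 weed seeds per species at 0–1 cm and flooded to about 3 cm. Seven days after sowing, a water-diluted emulsifiable concentrate was dropped onto the water at 120 g active ingredient per 10 ares. Weed inhibition (%) was scored at 14 days, in duplicate.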

Scirpus juncoides [4] = experiment: as above; conditions: Schoenoplectiella juncoides; 120 g per 10 ares; applied seven days after sowing, flooded pots; 14 days after application; read-out: weed inhibition rate
In short: as §2

Digitaria ciliaris [5] = experiment: Test Example 3: herbicidal effect test by soil application in upland field; conditions: Digitaria ciliaris, 120 g per 10 ares, sprayed one day after sowing, 14 days after application, read-out: weed inhibition rate
In short: (§3)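 Pre-emergence test: seeds mixed into top 1 cm of alluvial loam upland soil in pots; emulsifiable concentrate diluted in water sprayed on soil one day after sowing at 100 L/10 a, 120 g a.i./10 a. Weed inhibition rate (%) scored at 14 days, in duplicate.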

Echinochloa crus-galli [6] = experiment: as above; conditions: Echinochloa crus-galli, 120 g per 10 ares, sprayed one day after sowing, 14 days after application, read-out: weed inhibition rate
In short: as §3

Digitaria ciliaris [7] = experiment: Test Example 4: herbicidal effect test by stem and leaf treatment in upland field; conditions: Digitaria ciliaris; 120 g per 10 ares; sprayed seven days after sowing, upland soil; 14 days after application; read-out: weed inhibition rate
Echinochloa crus-galli [8] = experiment: as above; conditions: Echinochloa crus-galli; 120 g per 10 ares; sprayed seven days after sowing, upland soil; 14 days after application; read-out: weed inhibition rate
[9] = test system: Echinochloa crus-galli var. formosensis; experiment: Test Example 5: herbicidal effect test by soil application in paddy rice (low dose); conditions: Echinochloa crus-galli, soil, 336 h; 7.5 g per 10 ares; applied immediately after sowing, flooded pots; 14 days after application; read-out: weed inhibition rate
In short: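 Paddy soil in Wagner pots was fertilized (N:P:K 16:16:16), puddled, sown with 30 seeds per weed species at 0–1 cm, then flooded to ~3 cm in a glass greenhouse. Emulsifiable concentrate diluted in water was dropper-applied into floodwater immediately, at 7.5 g active ingredient per 10 ares; duplicates, scored at 14 days.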

[10] = test system: Echinochloa crus-galli var. formosensis; experiment: Test Example 6: herbicidal effect test by application during growth period of paddy rice (low dose); conditions: Echinochloa crus-galli; 7.5 g per 10 ares; applied seven days after sowing, flooded pots; 14 days after application; read-out: weed inhibition rate
In short: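 Paddy-soil pots, flooded ~3 cm after sowing weed seeds at 0-1 cm depth, greenhouse-grown. Seven days after sowing, diluted emulsifiable concentrate applied by dropper at 7.5 g active ingredient per 10 ares. Weed inhibition rate (%) scored 14 days after application, in duplicate.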

Digitaria ciliaris [11] = experiment: Test Example 7: herbicidal effect test by soil application in upland field (low dose); conditions: Digitaria ciliaris, 7.5 g per 10 ares, sprayed one day after sowing, 14 days after application, read-out: weed inhibition rate
In short: (§4)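 Pre-emergence soil application: upland alluvial loam pots sown with weed seeds mixed into the top 1 cm; one day after sowing, a water-diluted emulsifiable concentrate was sprayed on the soil at 100 L per 10 a, delivering 7.5 g active ingredient per 10 a. Weed inhibition rate (%) scored 14 days after application, duplicate pots.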

Echinochloa crus-galli [12] = experiment: as above; conditions: Echinochloa crus-galli, 7.5 g per 10 ares, sprayed one day after sowing, 14 days after application, read-out: weed inhibition rate
In short: as §4

Digitaria ciliaris [13] = experiment: Test Example 8: herbicidal effect test by stem and leaf treatment in upland field (low dose); conditions: Digitaria ciliaris; 7.5 g per 10 ares; sprayed seven days after sowing, upland soil; 14 days after application; read-out: weed inhibition rate
Echinochloa crus-galli [14] = experiment: as above; conditions: Echinochloa crus-galli; 7.5 g per 10 ares; sprayed seven days after sowing, upland soil; 14 days after application; read-out: weed inhibition rate

CC(C)C12CC(OCc3ccccc3C#N)C(C)(CC1I)O2 (stereo not shown) [1-1436, 2-[(5-iodo-1-methyl-4-isopropyl-7-oxabicyclo[2.2.1]heptan-2-yl)oxymethyl]benzonitrile]
≥ 80%: pest or weed control at 1200 g/ha [1] | pest or weed control at 1200 g/ha (Scirpus juncoides [2]) | inhibition at 1200 g/ha [3] | inhibition at 1200 g/ha (Scirpus juncoides [4]) | inhibition at 1200 g/ha (Digitaria ciliaris [5]) | inhibition at 1200 g/ha (Echinochloa crus-galli [6]) | inhibition at 1200 g/ha (Digitaria ciliaris [7]) | inhibition at 1200 g/ha (Echinochloa crus-galli [8]) | inhibition at 75 g/ha [9] | inhibition at 75 g/ha [10] | inhibition at 75 g/ha (Digitaria ciliaris [11]) | inhibition at 75 g/ha (Echinochloa crus-galli [12]) | inhibition at 75 g/ha (Digitaria ciliaris [13]) | inhibition at 75 g/ha (Echinochloa crus-galli [14])

Cc1cccc(C)c1COC1CC2(C(C)C)OC1(C)CC2I (stereo not shown) [1-1445, 5-[(2,6-dimethylphenyl)methoxy]-2-iodo-1-isopropyl-4-methyl-7-oxabicyclo[2.2.1]heptane]
≥ 80%: pest or weed control at 1200 g/ha [1] | pest or weed control at 1200 g/ha (Scirpus juncoides [2]) | inhibition at 1200 g/ha [3] | inhibition at 1200 g/ha (Scirpus juncoides [4]) | inhibition at 1200 g/ha (Digitaria ciliaris [5]) | inhibition at 1200 g/ha (Echinochloa crus-galli [6]) | inhibition at 1200 g/ha (Digitaria ciliaris [7]) | inhibition at 1200 g/ha (Echinochloa crus-galli [8]) | inhibition at 75 g/ha [9] | inhibition at 75 g/ha [10] | inhibition at 75 g/ha (Digitaria ciliaris [11]) | inhibition at 75 g/ha (Echinochloa crus-galli [12]) | inhibition at 75 g/ha (Digitaria ciliaris [13]) | inhibition at 75 g/ha (Echinochloa crus-galli [14])

CC(C)C12CC(OCc3c(F)cccc3F)C(C)(CC1I)O2 (stereo not shown) [1-1446, 5-[(2,6-difluorophenyl)methoxy]-2-iodo-1-isopropyl-4-methyl-7-oxabicyclo[2.2.1]heptane]
≥ 80%: pest or weed control at 1200 g/ha [1] | pest or weed control at 1200 g/ha (Scirpus juncoides [2]) | inhibition at 1200 g/ha [3] | inhibition at 1200 g/ha (Scirpus juncoides [4]) | inhibition at 1200 g/ha (Digitaria ciliaris [5]) | inhibition at 1200 g/ha (Echinochloa crus-galli [6]) | inhibition at 1200 g/ha (Digitaria ciliaris [7]) | inhibition at 1200 g/ha (Echinochloa crus-galli [8]) | inhibition at 75 g/ha [9] | inhibition at 75 g/ha [10] | inhibition at 75 g/ha (Digitaria ciliaris [11]) | inhibition at 75 g/ha (Echinochloa crus-galli [12]) | inhibition at 75 g/ha (Digitaria ciliaris [13]) | inhibition at 75 g/ha (Echinochloa crus-galli [14])

CC(C)C12CC(OCc3c(Cl)cccc3Cl)C(C)(CC1I)O2 (stereo not shown) [1-1447, 5-[(2,6-dichlorophenyl)methoxy]-2-iodo-1-isopropyl-4-methyl-7-oxabicyclo[2.2.1]heptane]
≥ 80%: pest or weed control at 1200 g/ha [1] | pest or weed control at 1200 g/ha (Scirpus juncoides [2]) | inhibition at 1200 g/ha [3] | inhibition at 1200 g/ha (Scirpus juncoides [4]) | inhibition at 1200 g/ha (Digitaria ciliaris [5]) | inhibition at 1200 g/ha (Echinochloa crus-galli [6]) | inhibition at 1200 g/ha (Digitaria ciliaris [7]) | inhibition at 1200 g/ha (Echinochloa crus-galli [8]) | inhibition at 75 g/ha [9] | inhibition at 75 g/ha [10] | inhibition at 75 g/ha (Digitaria ciliaris [11]) | inhibition at 75 g/ha (Echinochloa crus-galli [12]) | inhibition at 75 g/ha (Digitaria ciliaris [13]) | inhibition at 75 g/ha (Echinochloa crus-galli [14])

CC(C)C12CC(OCc3c(F)cccc3Cl)C(C)(CC1I)O2 (stereo not shown) [1-1448, 5-[(2-chloro-6-fluoro-phenyl)methoxy]-2-iodo-1-isopropyl-4-methyl-7-oxabicyclo[2.2.1]heptane]
≥ 80%: pest or weed control at 1200 g/ha [1] | pest or weed control at 1200 g/ha (Scirpus juncoides [2]) | inhibition at 1200 g/ha [3] | inhibition at 1200 g/ha (Scirpus juncoides [4]) | inhibition at 1200 g/ha (Digitaria ciliaris [5]) | inhibition at 1200 g/ha (Echinochloa crus-galli [6]) | inhibition at 1200 g/ha (Digitaria ciliaris [7]) | inhibition at 1200 g/ha (Echinochloa crus-galli [8]) | inhibition at 75 g/ha [9] | inhibition at 75 g/ha [10] | inhibition at 75 g/ha (Digitaria ciliaris [11]) | inhibition at 75 g/ha (Echinochloa crus-galli [12]) | inhibition at 75 g/ha (Digitaria ciliaris [13]) | inhibition at 75 g/ha (Echinochloa crus-galli [14])

CC(C)C12CC(OCc3cccs3)C(C)(CC1I)O2 (stereo not shown) [1-1456, 2-iodo-1-isopropyl-4-methyl-5-(2-thienylmethoxy)-7-oxabicyclo[2.2.1]heptane]
≥ 80%: pest or weed control at 1200 g/ha [1] | pest or weed control at 1200 g/ha (Scirpus juncoides [2]) | inhibition at 1200 g/ha [3] | inhibition at 1200 g/ha (Scirpus juncoides [4]) | inhibition at 1200 g/ha (Digitaria ciliaris [5]) | inhibition at 1200 g/ha (Echinochloa crus-galli [6]) | inhibition at 1200 g/ha (Digitaria ciliaris [7]) | inhibition at 1200 g/ha (Echinochloa crus-galli [8]) | inhibition at 75 g/ha [9] | inhibition at 75 g/ha [10] | inhibition at 75 g/ha (Digitaria ciliaris [11]) | inhibition at 75 g/ha (Echinochloa crus-galli [12]) | inhibition at 75 g/ha (Digitaria ciliaris [13]) | inhibition at 75 g/ha (Echinochloa crus-galli [14])

CC(C)C12CC(OCc3ccsc3)C(C)(CC1I)O2 (stereo not shown) [1-1457, 2-iodo-1-isopropyl-4-methyl-5-(3-thienylmethoxy)-7-oxabicyclo[2.2.1]heptane]
≥ 80%: pest or weed control at 1200 g/ha [1] | pest or weed control at 1200 g/ha (Scirpus juncoides [2]) | inhibition at 1200 g/ha [3] | inhibition at 1200 g/ha (Scirpus juncoides [4]) | inhibition at 1200 g/ha (Digitaria ciliaris [5]) | inhibition at 1200 g/ha (Echinochloa crus-galli [6]) | inhibition at 1200 g/ha (Digitaria ciliaris [7]) | inhibition at 1200 g/ha (Echinochloa crus-galli [8]) | inhibition at 75 g/ha [9] | inhibition at 75 g/ha [10] | inhibition at 75 g/ha (Digitaria ciliaris [11]) | inhibition at 75 g/ha (Echinochloa crus-galli [12]) | inhibition at 75 g/ha (Digitaria ciliaris [13]) | inhibition at 75 g/ha (Echinochloa crus-galli [14])

Cc1cccc(C)c1COC1CC2(C(C)C)OC1(C)CC2Cl (stereo not shown) [1-1610, 5-chloro-2-[(2,6-dimethylphenyl)methoxy]-1-methyl-4-isopropyl-7-oxabicyclo[2.2.1]heptane]
≥ 80%: pest or weed control at 1200 g/ha [1] | pest or weed control at 1200 g/ha (Scirpus juncoides [2]) | inhibition at 1200 g/ha [3] | inhibition at 1200 g/ha (Scirpus juncoides [4]) | inhibition at 1200 g/ha (Digitaria ciliaris [5]) | inhibition at 1200 g/ha (Echinochloa crus-galli [6]) | inhibition at 1200 g/ha (Digitaria ciliaris [7]) | inhibition at 1200 g/ha (Echinochloa crus-galli [8]) | inhibition at 75 g/ha [9] | inhibition at 75 g/ha [10] | inhibition at 75 g/ha (Digitaria ciliaris [11]) | inhibition at 75 g/ha (Echinochloa crus-galli [12]) | inhibition at 75 g/ha (Digitaria ciliaris [13]) | inhibition at 75 g/ha (Echinochloa crus-galli [14])
